Experimental data reported in patent US20140243335A1, “SUBSTITUTED HYDOXAMIC ACIDS AND USES THEREOF” (Millennium Pharmaceuticals, Inc., priority 2010, published 2014).
Structures can show the parent of a compound that is named as a salt.

target: T1, purified human HDAC6 (Homo sapiens, UniProt Q9UBN7); experiment: HDAC6 Enzyme Assay; type: biochemical; conditions: HDAC6 inhibition at a compound concentration of 0.412 μM; read-out: Percent Inhibition at 0.412 μM
T1 construct: purchased BPS Bioscience 5006
T1 sequence (Q9UBN7 1-1215): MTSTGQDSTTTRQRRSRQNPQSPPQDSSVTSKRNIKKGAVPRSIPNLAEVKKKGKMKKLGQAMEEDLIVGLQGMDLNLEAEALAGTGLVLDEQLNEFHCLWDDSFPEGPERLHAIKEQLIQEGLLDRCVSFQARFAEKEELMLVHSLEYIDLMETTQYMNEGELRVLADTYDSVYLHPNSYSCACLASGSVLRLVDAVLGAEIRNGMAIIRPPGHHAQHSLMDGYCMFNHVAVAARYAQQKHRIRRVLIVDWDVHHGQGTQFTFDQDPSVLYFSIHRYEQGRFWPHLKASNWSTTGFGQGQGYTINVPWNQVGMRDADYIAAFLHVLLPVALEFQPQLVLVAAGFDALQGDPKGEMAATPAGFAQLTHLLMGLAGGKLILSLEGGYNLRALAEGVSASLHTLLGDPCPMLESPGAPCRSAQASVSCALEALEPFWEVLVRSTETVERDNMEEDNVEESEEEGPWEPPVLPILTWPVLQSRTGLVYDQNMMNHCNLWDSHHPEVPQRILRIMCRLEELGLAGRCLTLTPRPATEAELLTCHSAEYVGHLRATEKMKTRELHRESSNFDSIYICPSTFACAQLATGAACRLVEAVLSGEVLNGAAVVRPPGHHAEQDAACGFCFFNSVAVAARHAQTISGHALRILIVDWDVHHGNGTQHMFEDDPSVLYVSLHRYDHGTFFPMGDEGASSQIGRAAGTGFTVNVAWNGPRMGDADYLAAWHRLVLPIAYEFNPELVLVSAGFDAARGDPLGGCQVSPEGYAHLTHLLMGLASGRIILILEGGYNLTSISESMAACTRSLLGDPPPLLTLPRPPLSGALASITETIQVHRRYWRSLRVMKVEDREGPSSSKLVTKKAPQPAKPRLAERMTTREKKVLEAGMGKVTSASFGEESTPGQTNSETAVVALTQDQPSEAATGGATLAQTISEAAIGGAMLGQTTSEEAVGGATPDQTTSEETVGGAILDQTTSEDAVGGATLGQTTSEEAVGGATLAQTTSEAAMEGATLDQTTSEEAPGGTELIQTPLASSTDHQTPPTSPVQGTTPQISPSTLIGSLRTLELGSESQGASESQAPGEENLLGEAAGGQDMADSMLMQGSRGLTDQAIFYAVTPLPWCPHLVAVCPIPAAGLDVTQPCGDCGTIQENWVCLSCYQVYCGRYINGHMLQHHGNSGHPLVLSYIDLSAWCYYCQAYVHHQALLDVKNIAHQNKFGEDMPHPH

Going from `CN(C)CCOc1cccc(C2CCc3ccc(C(=O)NO)cc3C2)c1` (centres unmarked) [Compound I-194, 7-{3-[2-(dimethylamino)ethoxy]phenyl}-N-hydroxy-5,6,7,8-tetrahydronaphthalene-2-carboxamide] to `O=C(NO)c1ccc2c(c1)CCC(Oc1ccccc1)C2` (centres unmarked) [Compound I-229, N-hydroxy-6-phenoxy-5,6,7,8-tetrahydronaphthalene-2-carboxamide], the inhibition at 0.412 µM rises from 86% to 92%.

Going from `CC1(C(=O)N2C3CCC2c2cc(C(=O)NO)ccc23)CCCCC1` (centres unmarked) [Compound I-196, N-hydroxy-9-[(1-methylcyclohexyl)carbonyl]-1,2,3,4-tetrahydro-1,4-epiminonaphthalene-6-carboxamide] to `CCCC(=O)N1C2CCC1c1cc(C(=O)NO)ccc12` (centres unmarked) [Compound I-207, 9-butyryl-N-hydroxy-1,2,3,4-tetrahydro-1,4-epiminonaphthalene-6-carboxamide], the inhibition at 0.412 µM falls from 32% to 25%.

First: O=C(NO)c1ccc2c(c1)C1CCC2N1C(=O)c1ccc(Cl)cc1 (centres unmarked) [Compound I-197, 9-(4-chlorobenzoyl)-N-hydroxy-1,2,3,4-tetrahydro-1,4-epiminonaphthalene-6-carboxamide]
Second: COc1ccc(C(=O)N2C3CCC2c2cc(C(=O)NO)ccc23)cc1 (centres unmarked) [Compound I-198, N-hydroxy-9-(4-methoxybenzoyl)-1,2,3,4-tetrahydro-1,4-epiminonaphthalene-6-carboxamide]
The inhibition at 0.412 µM of the first is lower: 55% for the first, 60% for the second.

First: O=C(NO)c1ccc2c(c1)C1CCC2N1C(=O)c1ccc(-c2ccccc2)cc1 (centres unmarked) [Compound I-199, 9-(biphenyl-4-ylcarbonyl)-N-hydroxy-1,2,3,4-tetrahydro-1,4-epiminonaphthalene-6-carboxamide]
Second: CC(C)(C)c1ccc(C(=O)N2C3CCC2c2cc(C(=O)NO)ccc23)cc1 (centres unmarked) [Compound I-200, 9-(4-tert-butylbenzoyl)-N-hydroxy-1,2,3,4-tetrahydro-1,4-epiminonaphthalene-6-carboxamide]
The inhibition at 0.412 µM of the first is higher: 70% for the first, 67% for the second.

Compared with `CC(C)(C)C(=O)N1C2CCC1c1cc(C(=O)NO)ccc12` (centres unmarked) [Compound I-201, 9-(2,2-dimethylpropanoyl)-N-hydroxy-1,2,3,4-tetrahydro-1,4-epiminonaphthalene-6-carboxamide], `Cc1nc(C(=O)N2C3CCC2c2cc(C(=O)NO)ccc23)cs1` (centres unmarked) [Compound I-208, N-hydroxy-9-[(2-methyl-1,3-thiazol-4-yl)carbonyl]-1,2,3,4-tetrahydro-1,4-epiminonaphthalene-6-carboxamide] is higher in inhibition at 0.412 µM: 29% for the first, 34% for the second.

First: O=C(NO)c1ccc2c(c1)C1CCC2N1C(=O)c1cc2ccccc2o1 (centres unmarked) [Compound I-202, 9-(1-benzofuran-2-ylcarbonyl)-N-hydroxy-1,2,3,4-tetrahydro-1,4-epiminonaphthalene-6-carboxamide]
Second: O=C(NO)c1ccc2c(c1)C1CCC2N1C(=O)c1cc2ccccc2s1 (centres unmarked) [Compound I-204, 9-(1-benzothien-2-ylcarbonyl)-N-hydroxy-1,2,3,4-tetrahydro-1,4-epiminonaphthalene-6-carboxamide]
The inhibition at 0.412 µM of the first is lower: 19% for the first, 23% for the second.

Going from `O=C(NO)c1ccc2c(c1)C1CCC2N1C(=O)c1sc2ccccc2c1Cl` (centres unmarked) [Compound I-203, 9-[(3-chloro-1-benzothien-2-yl)carbonyl]-N-hydroxy-1,2,3,4-tetrahydro-1,4-epiminonaphthalene-6-carboxamide] to `Cc1nc(-c2ccccn2)sc1C(=O)N1C2CCC1c1cc(C(=O)NO)ccc12` (centres unmarked) [Compound I-206], the inhibition at 0.412 µM falls from 53% to 18%.

First: O=C(NO)c1ccc2c(c1)C1CCC2N1C(=O)C12CC3CC(CC(C3)C1)C2 (centres unmarked) [Compound I-205, 9-(1-adamantylcarbonyl)-N-hydroxy-1,2,3,4-tetrahydro-1,4-epiminonaphthalene-6-carboxamide]
Second: O=C(NO)c1ccc2c(c1)C1CCC2N1C(=O)c1ccccn1 (centres unmarked) [Compound I-210, N-hydroxy-9-(pyridin-2-ylcarbonyl)-1,2,3,4-tetrahydro-1,4-epiminonaphthalene-6-carboxamide]
The inhibition at 0.412 µM of the first is lower: 17% for the first, 28% for the second.

Going from `O=C(NO)c1ccc2c(c1)C1CCC2N1C(=O)Cc1ccccc1` (centres unmarked) [Compound I-211, N-hydroxy-9-(phenylacetyl)-1,2,3,4-tetrahydro-1,4-epiminonaphthalene-6-carboxamide] to `O=C(NO)c1ccc2c(c1)CCC(Oc1ccnc(C(=O)NC3CCNCC3)c1)C2` (centres unmarked) [Compound I-220, 4-({6-[(hydroxyamino)carbonyl]-1,2,3,4-tetrahydronaphthalen-2-yl}oxy)-N-piperidin-4-ylpyridine-2-carboxamide], the inhibition at 0.412 µM rises from 51% to 92%.

First: O=C(NO)c1ccc2c(c1)CC(C1CCNCC1)CC2 (centres unmarked) [Compound I-212, N-hydroxy-7-piperidin-4-yl-5,6,7,8-tetrahydronaphthalene-2-carboxamide. HCl]
Second: CC(C)(C)OC(=O)N1CCC(C2CCc3ccc(C(=O)NO)cc3C2)CC1 (centres unmarked) [Compound I-221, tert-butyl 4-{7-[(hydroxyamino)carbonyl]-1,2,3,4-tetrahydronaphthalen-2-yl}piperidine-1-carboxylate]
The inhibition at 0.412 µM of the first is higher: 72% for the first, 41% for the second.

Compared with `CC(C)(C)OC(=O)N1CCC(C)(C(=O)Nc2cc(OC3CCc4cc(C(=O)NO)ccc4C3)ccn2)CC1` (centres unmarked) [Compound I-214, tert-Butyl 4-({[4-({6-[(hydroxyamino)carbonyl]-1,2,3,4-tetrahydronaphthalen-2-yl}oxy)pyridin-2-yl]amino}carbonyl)-4-methylpiperidine-1-carboxylate], `CC(C)(C)OC(=O)N1CCC(C(=O)Nc2cc(OC3CCc4cc(C(=O)NO)ccc4C3)ccn2)CC1` (centres unmarked) [Compound I-224, tert-butyl 4-({[4-({6-[(hydroxyamino)carbonyl]-1,2,3,4-tetrahydronaphthalen-2-yl}oxy)pyridin-2-yl]amino}carbonyl)piperidine-1-carboxylate] is higher in inhibition at 0.412 µM: 88% for the first, 94% for the second.

First: CC(C)N1CCC(C)(C(=O)Nc2cc(OC3CCc4cc(C(=O)NO)ccc4C3)ccn2)CC1 (centres unmarked) [Compound I-219, N-[4-({6-[(hydroxyamino)carbonyl]-1,2,3,4-tetrahydronaphthalen-2-yl}oxy)pyridin-2-yl]-1-isopropyl-4-methylpiperidine-4-carboxamide]
Second: CCN1CCC(C)(C(=O)Nc2cc(OC3CCc4cc(C(=O)NO)ccc4C3)ccn2)CC1 (centres unmarked) [Compound I-222, 1-ethyl-N-[4-({6-[(hydroxyamino)carbonyl]-1,2,3,4-tetrahydronaphthalen-2-yl}oxy)pyridin-2-yl]-4-methylpiperidine-4-carboxamide]
The inhibition at 0.412 µM of the first is lower: 90% for the first, 91% for the second.

Compared with `CC(C)(C)OC(=O)N1CCC(NC(=O)c2cc(OC3CCc4cc(C(=O)NO)ccc4C3)ccn2)CC1` (centres unmarked) [Compound I-223, tert-butyl 4-({[4-({6-[(hydroxyamino)carbonyl]-1,2,3,4-tetrahydronaphthalen-2-yl}oxy)pyridin-2-yl]carbonyl}amino)piperidine-1-carboxylate], `CCN1CCC(NC(=O)c2cc(OC3CCc4cc(C(=O)NO)ccc4C3)ccn2)CC1` (centres unmarked) [Compound I-227, N-(1-ethylpiperidin-4-yl)-4-({6-[(hydroxyamino)carbonyl]-1,2,3,4-tetrahydronaphthalen-2-yl}oxy)pyridine-2-carboxamide] is higher in inhibition at 0.412 µM: 88% for the first, 95% for the second.

Compared with `O=C(NO)c1ccc2c(c1)CCC(Oc1ccnc(NC(=O)C3CCNCC3)c1)C2` (centres unmarked) [Compound I-225, N-[4-({6-[(hydroxyamino)carbonyl]-1,2,3,4-tetrahydronaphthalen-2-yl}oxy)pyridin-2-yl]piperidine-4-carboxamide], `O=C(NO)c1ccc2c(c1)CCC(Oc1ccnc(Nc3ccc(Cl)cc3)c1)C2` (centres unmarked) [Compound I-228, 6-({2-[(4-chlorophenyl)amino]pyridin-4-yl}oxy)-N-hydroxy-5,6,7,8-tetrahydronaphthalene-2-carboxamide] is lower in inhibition at 0.412 µM: 95% for the first, 90% for the second.

Work on `CCN(CC)CCNC(=O)c1cc(OC2CCc3cc(C(=O)NO)ccc3C2)ccn1` (centres unmarked) [Compound I-226, N-[2-(diethylamino)ethyl]-4-({6-[(hydroxyamino)carbonyl]-1,2,3,4-tetrahydronaphthalen-2-yl}oxy)pyridine-2-carboxamide] yielded an inhibition at 0.412 µM of 93%.
